Reference: the kinase profiling compilation of Christmann-Franck et al. (2016)

Key:
Test in all cases: KINOMEscan competition binding
Conditions in all cases: compound 10.0 µM
IRAK3 (human) = IRAK3 (human) (UniProt Q9Y616)
TNK1 (human) = TNK1 (human) (UniProt Q13470)
CSNK1D (human) = CSNK1D (human) (UniProt P48730)
SRMS (human) = SRMS (human) (UniProt Q9H3Y6)
GSK3A (human) = GSK3A (human) (UniProt P49840)
MAP3K9 (human) = MAP3K9 (human) (UniProt P80192)
PTK2 (human) = PTK2 (human) (UniProt Q05397)
MAP2K6 (human) = MAP2K6 (human) (UniProt P52564)
PIP5K1A (human) = PIP5K1A (human) (UniProt Q99755)
RAF1 (human) = RAF1 (human) (UniProt P04049)
MYLK2 (human) = MYLK2 (human) (UniProt Q9H1R3)
STK17B (human) = STK17B (human) (UniProt O94768)
RIOK2 (human) = RIOK2 (human) (UniProt Q9BVS4)
PLK3 (human) = PLK3 (human) (UniProt Q9H4B4)
ACVR2A (human) = ACVR2A (human) (UniProt P27037)
MERTK (human) = MERTK (human) (UniProt Q12866)
EPHB1 (human) = EPHB1 (human) (UniProt P54762)
STK4 (human) = STK4 (human) (UniProt Q13043)
TLK2 (human) = TLK2 (human) (UniProt Q86UE8)
ERBB2 (human) = ERBB2 (human) (UniProt P04626)
CSNK1G1 (human) = CSNK1G1 (human) (UniProt Q9HCP0)
RPS6KA4 KD2 (human) = RPS6KA4 KD2 (human) (UniProt O75676)
MAP2K1 (human) = MAP2K1 (human) (UniProt Q02750)
PRKCH (human) = PRKCH (human) (UniProt P24723)
MAPK1 (human) = MAPK1 (human) (UniProt P28482)
STK38L (human) = STK38L (human) (UniProt Q9Y2H1)
GAK (human) = GAK (human) (UniProt O14976)
ULK1 (human) = ULK1 (human) (UniProt O75385)
PAK6 (human) = PAK6 (human) (UniProt Q9NQU5)
CIT (human) = CIT (human) (UniProt O14578)
PRKX (human) = PRKX (human) (UniProt P51817)
PRKACA (human) = PRKACA (human) (UniProt P17612)
RPS6KA2 KD2 (human) = RPS6KA2 KD2 (human) (UniProt Q15349)
CaMK1 (human) = CaMK1 (human) (UniProt Q14012)
STK32C (human) = STK32C (human) (UniProt Q86UX6)
PIK3CG (human) = PIK3CG (human) (UniProt P48736)
CDK19 (human) = CDK19 (human) (UniProt Q9BWU1)
AXL (human) = AXL (human) (UniProt P30530)
NEK7 (human) = NEK7 (human) (UniProt Q8TDX7)
[1] = system: EGFR (human), P00533 [G719C]
PRKCE (human) = PRKCE (human) (UniProt Q02156)
[2] = molecular target: JAK2 JH1 catalytic (human) (UniProt O60674)

PTK2 (human), sequence (Q05397 whole entry, looked up): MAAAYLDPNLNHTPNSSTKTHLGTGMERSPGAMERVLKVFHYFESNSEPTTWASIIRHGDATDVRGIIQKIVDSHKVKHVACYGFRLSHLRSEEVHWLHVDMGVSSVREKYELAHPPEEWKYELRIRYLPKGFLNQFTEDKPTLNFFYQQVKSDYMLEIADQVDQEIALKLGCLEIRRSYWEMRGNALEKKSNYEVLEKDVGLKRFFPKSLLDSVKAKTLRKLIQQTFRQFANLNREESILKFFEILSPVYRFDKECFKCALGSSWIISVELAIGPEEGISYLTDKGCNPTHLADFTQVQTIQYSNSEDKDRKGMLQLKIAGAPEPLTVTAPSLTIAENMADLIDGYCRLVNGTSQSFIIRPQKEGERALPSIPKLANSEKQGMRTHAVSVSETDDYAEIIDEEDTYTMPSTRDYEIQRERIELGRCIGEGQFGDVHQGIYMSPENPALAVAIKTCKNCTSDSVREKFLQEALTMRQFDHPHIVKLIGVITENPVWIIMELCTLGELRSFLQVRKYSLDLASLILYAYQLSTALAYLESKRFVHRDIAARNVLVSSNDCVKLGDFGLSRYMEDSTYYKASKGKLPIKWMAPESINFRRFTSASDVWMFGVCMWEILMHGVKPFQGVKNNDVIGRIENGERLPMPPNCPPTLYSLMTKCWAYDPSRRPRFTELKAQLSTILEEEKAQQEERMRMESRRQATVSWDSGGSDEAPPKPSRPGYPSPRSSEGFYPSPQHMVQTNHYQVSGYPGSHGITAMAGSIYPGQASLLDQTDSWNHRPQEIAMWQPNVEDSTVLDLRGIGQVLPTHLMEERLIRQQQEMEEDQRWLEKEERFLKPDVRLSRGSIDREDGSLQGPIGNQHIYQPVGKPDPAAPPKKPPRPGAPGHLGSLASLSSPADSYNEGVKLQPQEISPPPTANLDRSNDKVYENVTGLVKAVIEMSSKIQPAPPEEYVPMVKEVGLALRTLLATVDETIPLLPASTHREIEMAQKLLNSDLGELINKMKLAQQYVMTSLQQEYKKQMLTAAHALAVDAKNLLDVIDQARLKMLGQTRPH
SRMS (human), sequence (Q9H3Y6 whole entry, looked up): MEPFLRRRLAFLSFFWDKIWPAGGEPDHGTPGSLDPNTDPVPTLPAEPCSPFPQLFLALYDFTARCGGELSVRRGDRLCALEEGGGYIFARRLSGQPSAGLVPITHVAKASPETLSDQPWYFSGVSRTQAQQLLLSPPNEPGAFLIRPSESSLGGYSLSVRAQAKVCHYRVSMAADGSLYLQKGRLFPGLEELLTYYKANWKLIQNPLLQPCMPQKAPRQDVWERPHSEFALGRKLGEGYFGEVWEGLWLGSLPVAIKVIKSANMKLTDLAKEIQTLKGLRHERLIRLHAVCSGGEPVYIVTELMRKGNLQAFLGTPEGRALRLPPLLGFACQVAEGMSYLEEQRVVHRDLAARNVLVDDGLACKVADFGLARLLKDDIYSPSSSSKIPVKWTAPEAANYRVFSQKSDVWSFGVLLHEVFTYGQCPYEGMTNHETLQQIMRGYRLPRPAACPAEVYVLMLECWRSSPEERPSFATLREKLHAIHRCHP
RAF1 (human), sequence (P04049 whole entry, looked up): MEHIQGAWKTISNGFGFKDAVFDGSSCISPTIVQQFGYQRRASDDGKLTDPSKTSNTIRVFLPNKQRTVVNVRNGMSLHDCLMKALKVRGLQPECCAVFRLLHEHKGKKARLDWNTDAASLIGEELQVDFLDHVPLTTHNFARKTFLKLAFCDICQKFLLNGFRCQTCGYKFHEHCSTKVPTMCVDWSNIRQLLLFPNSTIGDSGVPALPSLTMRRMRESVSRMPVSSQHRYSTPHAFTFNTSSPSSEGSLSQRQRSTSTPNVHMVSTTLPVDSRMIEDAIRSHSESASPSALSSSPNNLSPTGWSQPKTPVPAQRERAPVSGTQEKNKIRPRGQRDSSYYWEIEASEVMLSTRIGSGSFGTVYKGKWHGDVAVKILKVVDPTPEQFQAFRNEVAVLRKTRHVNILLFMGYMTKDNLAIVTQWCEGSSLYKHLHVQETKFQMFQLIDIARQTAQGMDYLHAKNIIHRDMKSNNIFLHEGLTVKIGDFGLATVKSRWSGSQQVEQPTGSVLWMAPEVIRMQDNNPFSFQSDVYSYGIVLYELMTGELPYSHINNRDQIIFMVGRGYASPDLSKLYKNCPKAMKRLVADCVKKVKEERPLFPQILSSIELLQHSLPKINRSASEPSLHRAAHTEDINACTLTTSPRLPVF
CDK19 (human), sequence (Q9BWU1 whole entry, looked up): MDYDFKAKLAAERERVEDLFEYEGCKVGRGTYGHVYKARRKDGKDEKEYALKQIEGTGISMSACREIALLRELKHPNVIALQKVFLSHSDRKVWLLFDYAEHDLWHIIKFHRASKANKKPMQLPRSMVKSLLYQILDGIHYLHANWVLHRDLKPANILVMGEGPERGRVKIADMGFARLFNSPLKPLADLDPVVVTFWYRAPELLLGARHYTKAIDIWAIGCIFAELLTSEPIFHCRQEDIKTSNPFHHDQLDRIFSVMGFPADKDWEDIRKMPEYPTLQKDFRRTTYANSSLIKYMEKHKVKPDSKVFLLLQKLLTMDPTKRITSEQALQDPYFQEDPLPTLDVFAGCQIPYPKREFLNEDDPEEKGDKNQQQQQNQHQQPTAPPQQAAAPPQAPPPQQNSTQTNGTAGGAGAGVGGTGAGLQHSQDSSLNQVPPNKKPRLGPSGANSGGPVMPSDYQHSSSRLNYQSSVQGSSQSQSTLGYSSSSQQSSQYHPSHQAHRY
MYLK2 (human), sequence (Q9H1R3 whole entry, looked up): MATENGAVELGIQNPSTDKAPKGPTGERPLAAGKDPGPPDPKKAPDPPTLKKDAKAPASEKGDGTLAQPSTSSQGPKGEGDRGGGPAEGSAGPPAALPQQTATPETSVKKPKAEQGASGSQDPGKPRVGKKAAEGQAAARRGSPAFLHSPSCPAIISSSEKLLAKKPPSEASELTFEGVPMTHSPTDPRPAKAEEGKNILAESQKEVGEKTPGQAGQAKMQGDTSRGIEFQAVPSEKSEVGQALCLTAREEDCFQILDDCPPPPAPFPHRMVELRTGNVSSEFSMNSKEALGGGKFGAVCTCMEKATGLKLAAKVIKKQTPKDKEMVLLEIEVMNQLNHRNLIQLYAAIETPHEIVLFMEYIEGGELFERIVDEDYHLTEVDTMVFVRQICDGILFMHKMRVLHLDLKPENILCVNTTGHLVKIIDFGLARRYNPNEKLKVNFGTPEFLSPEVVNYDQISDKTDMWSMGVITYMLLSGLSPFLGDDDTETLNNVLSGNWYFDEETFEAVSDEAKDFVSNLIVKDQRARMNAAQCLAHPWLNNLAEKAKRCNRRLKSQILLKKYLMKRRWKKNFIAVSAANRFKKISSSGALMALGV
STK38L (human), sequence (Q9Y2H1 whole entry, looked up): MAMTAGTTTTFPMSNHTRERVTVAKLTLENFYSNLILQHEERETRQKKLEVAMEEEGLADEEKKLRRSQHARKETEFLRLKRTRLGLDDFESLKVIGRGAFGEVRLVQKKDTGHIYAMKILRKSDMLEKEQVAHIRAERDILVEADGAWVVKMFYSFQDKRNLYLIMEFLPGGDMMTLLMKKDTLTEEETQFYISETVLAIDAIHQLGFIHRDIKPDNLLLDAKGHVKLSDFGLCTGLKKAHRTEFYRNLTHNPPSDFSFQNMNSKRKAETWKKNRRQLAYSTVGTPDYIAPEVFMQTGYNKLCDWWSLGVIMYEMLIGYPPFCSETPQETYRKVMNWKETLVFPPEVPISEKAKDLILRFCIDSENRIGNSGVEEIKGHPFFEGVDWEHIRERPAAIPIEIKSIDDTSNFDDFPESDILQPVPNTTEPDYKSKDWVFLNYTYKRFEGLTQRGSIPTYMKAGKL
GAK (human), sequence (O14976 whole entry, looked up): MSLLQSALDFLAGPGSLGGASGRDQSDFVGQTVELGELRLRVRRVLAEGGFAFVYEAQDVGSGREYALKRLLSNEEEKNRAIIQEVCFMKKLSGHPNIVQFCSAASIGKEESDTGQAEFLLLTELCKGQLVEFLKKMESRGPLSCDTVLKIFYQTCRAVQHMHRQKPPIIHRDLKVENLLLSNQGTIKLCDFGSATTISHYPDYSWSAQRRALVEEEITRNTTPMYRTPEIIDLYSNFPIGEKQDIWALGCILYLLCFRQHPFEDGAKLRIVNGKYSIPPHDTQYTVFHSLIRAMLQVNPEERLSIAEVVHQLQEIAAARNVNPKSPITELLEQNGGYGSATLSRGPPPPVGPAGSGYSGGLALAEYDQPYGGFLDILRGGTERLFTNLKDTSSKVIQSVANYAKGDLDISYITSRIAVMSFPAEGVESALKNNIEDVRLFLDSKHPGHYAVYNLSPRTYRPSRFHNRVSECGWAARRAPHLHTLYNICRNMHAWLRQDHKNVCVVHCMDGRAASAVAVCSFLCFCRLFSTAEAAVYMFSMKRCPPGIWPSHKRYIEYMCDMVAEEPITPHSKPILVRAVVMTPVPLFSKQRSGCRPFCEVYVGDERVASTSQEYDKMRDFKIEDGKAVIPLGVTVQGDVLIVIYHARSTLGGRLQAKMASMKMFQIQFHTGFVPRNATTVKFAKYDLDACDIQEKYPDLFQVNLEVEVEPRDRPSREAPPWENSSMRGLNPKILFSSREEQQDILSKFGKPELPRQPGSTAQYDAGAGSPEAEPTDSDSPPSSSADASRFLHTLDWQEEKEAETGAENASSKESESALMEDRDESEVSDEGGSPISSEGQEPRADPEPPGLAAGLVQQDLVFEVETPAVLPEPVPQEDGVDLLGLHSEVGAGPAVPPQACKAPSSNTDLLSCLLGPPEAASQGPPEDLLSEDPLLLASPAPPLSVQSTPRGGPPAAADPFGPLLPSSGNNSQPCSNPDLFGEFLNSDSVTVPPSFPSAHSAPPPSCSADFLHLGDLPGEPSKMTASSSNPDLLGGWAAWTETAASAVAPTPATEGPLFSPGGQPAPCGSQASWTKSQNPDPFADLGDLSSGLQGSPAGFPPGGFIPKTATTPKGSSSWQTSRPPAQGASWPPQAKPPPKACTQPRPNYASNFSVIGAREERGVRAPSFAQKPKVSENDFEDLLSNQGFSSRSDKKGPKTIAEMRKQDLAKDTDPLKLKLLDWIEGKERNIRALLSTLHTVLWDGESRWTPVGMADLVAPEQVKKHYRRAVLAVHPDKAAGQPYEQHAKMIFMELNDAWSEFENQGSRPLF

Q: How did the kinase still bound, per cent of control (IRAK3 (human)) turn out when `COc1cc(N2CCC(N3CCN(C)CC3)CC2)ccc1Nc1ncc(Cl)c(Nc2ccccc2S(=O)(=O)C(C)C)n1` was run?
A: 0.15%

Q: What about the kinase still bound, per cent of control (TNK1 (human)) of the same compound?
A: 0.45%

Q: What about the kinase still bound, per cent of control (CSNK1D (human)) of the same compound?
A: 40%

Q: What about the kinase still bound, per cent of control (SRMS (human)) of the same compound?
A: 0%

Q: What about the kinase still bound, per cent of control (GSK3A (human)) of the same compound?
A: 40%

Q: And the kinase still bound, per cent of control (MAP3K9 (human))?
A: 0.35%

Q: And the kinase still bound, per cent of control (PTK2 (human))?
A: 0%

Q: And the kinase still bound, per cent of control (MAP2K6 (human))?
A: 40%

Q: What about the kinase still bound, per cent of control (PIP5K1A (human)) of the same compound?
A: 1.3%

Q: What about the kinase still bound, per cent of control (RAF1 (human)) of the same compound?
A: 40%

Q: What about the kinase still bound, per cent of control (MYLK2 (human)) of the same compound?
A: 40%

Q: And the kinase still bound, per cent of control (STK17B (human))?
A: 40%

Q: What about the kinase still bound, per cent of control (RIOK2 (human)) of the same compound?
A: 5.3%

Q: And the kinase still bound, per cent of control (PLK3 (human))?
A: 0%

Q: And the kinase still bound, per cent of control (ACVR2A (human))?
A: 12%

Q: And the kinase still bound, per cent of control (MERTK (human))?
A: 0%

Q: What about the kinase still bound, per cent of control (EPHB1 (human)) of the same compound?
A: 0.1%

Q: And the kinase still bound, per cent of control (STK4 (human))?
A: 4.1%

Q: And the kinase still bound, per cent of control (TLK2 (human))?
A: 40%

Q: And the kinase still bound, per cent of control (ERBB2 (human))?
A: 8%

Q: And the kinase still bound, per cent of control (CSNK1G1 (human))?
A: 40%

Q: What about the kinase still bound, per cent of control (RPS6KA4 KD2 (human)) of the same compound?
A: 40%

Q: What about the kinase still bound, per cent of control (MAP2K1 (human)) of the same compound?
A: 3.6%

Q: What about the kinase still bound, per cent of control (PRKCH (human)) of the same compound?
A: 40%

Q: And the kinase still bound, per cent of control (MAPK1 (human))?
A: 0.3%

Q: And the kinase still bound, per cent of control (STK38L (human))?
A: 7.3%

Q: And the kinase still bound, per cent of control (GAK (human))?
A: 0.1%

Q: What about the kinase still bound, per cent of control (ULK1 (human)) of the same compound?
A: 0.1%

Q: And the kinase still bound, per cent of control (PAK6 (human))?
A: 13%

Q: And the kinase still bound, per cent of control (CIT (human))?
A: 40%

Q: What about the kinase still bound, per cent of control (PRKX (human)) of the same compound?
A: 28%

Q: What about the kinase still bound, per cent of control (PRKACA (human)) of the same compound?
A: 11%

Q: What about the kinase still bound, per cent of control (RPS6KA2 KD2 (human)) of the same compound?
A: 6.2%

Q: And the kinase still bound, per cent of control (CaMK1 (human))?
A: 1.4%

Q: And the kinase still bound, per cent of control (STK32C (human))?
A: 3.1%

Q: What about the kinase still bound, per cent of control (PIK3CG (human)) of the same compound?
A: 40%

Q: What about the kinase still bound, per cent of control (CDK19 (human)) of the same compound?
A: 40%

Q: What about the kinase still bound, per cent of control (AXL (human)) of the same compound?
A: 0.1%

Q: And the kinase still bound, per cent of control (NEK7 (human))?
A: 3.8%

Q: With `CCN1CCN(Cc2ccc(NC(=O)c3ccc(C)c(Oc4ccnc5[nH]ccc45)c3)cc2C(F)(F)F)CC1` as the compound, how does the kinase still bound, per cent of control (TNK1 (human)) read?
A: 0.35%

Q: And the kinase still bound, per cent of control (SRMS (human))?
A: 4.6%

Q: And the kinase still bound, per cent of control (PTK2 (human))?
A: 23%

Q: What about the kinase still bound, per cent of control (RAF1 (human)) of the same compound?
A: 7%

Q: And the kinase still bound, per cent of control (MYLK2 (human))?
A: 8.4%

Q: What about the kinase still bound, per cent of control [1] of the same compound?
A: 12%

Q: And the kinase still bound, per cent of control (PRKCE (human))?
A: 20%

Q: And the kinase still bound, per cent of control (STK38L (human))?
A: 6.8%

Q: And the kinase still bound, per cent of control (GAK (human))?
A: 31%

Q: And the kinase still bound, per cent of control (CIT (human))?
A: 0.1%

Q: And the kinase still bound, per cent of control [2]?
A: 2.4%

Q: What about the kinase still bound, per cent of control (CaMK1 (human)) of the same compound?
A: 0%

Q: And the kinase still bound, per cent of control (CDK19 (human))?
A: 0.1%
